Experimental data published in patent US7968601B2, “Adamantyl acetamides as 11-β hydroxysteroid dehydrogenase inhibitors” (Janssen Pharmaceutica N.V., priority 2002, dated 2011).

Experiments:
11b-HSD2 [1] = target: T1, 11b-HSD2 (Homo sapiens, UniProt P80365); experiment: Enzymatic assay, 11b-HSD2 dependent dehydrogenase activity; format: biochemical; conditions: 11b-HSD2 dehydrogenase activity, pIC50 scored 1-3, read-out: [C1] HSD2 prot Dehydro Score
T1 sequence (P80365 1-405): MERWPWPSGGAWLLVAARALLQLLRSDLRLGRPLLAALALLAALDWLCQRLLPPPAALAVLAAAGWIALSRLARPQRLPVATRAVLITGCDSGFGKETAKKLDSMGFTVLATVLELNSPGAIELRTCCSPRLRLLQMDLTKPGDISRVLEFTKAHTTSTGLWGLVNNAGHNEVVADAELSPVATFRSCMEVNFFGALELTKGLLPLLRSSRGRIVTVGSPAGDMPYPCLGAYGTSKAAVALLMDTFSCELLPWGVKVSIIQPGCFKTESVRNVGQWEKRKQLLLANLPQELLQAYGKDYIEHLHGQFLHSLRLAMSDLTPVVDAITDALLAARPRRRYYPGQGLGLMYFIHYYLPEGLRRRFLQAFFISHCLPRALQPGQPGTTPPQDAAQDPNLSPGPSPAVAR
Method: The effects on the 11b-HSD2 dependent dehydrogenase activity was studied in a reaction mixture containing 0.1M sodium phosphate buffer pH 7.5, 300 μM NAD, 100 nM cortisol (of which 2 nM is 3H-radio labelled), 1 μl drug and/or solvent and 2.5 μg recombinant protein in a final volume of 100 μl.
(§1) All incubations were performed for 45 min at 37 C in a water bath. The reaction was stopped by adding 100 μl acetonitrile containing 20 μg corticosterone as internal standard. After centrifugation, the product formation was analysed in the supernatant by HPLC on a Hypersyl BDS-C18 column using 0.05 mM ammonium acetate/methanol (50/50) as solvent. In all of the aforementioned assays, the drugs to be tested were taken from a stock solution and tested at a final concentration ranging from […] to 3.10^−9M. From the thus obtained dose response curves, the pIC50 value was calculated and scored as follows; Score 1=pIC50 value<5, Score 2=pIC50 value in the range of 5 to 6, Score 3=pIC50 value>6. (in this table NT stands for Not Tested).

11b-HSD1 [2] = target: T2, 11b-HSD1 (Mus musculus, UniProt P50172); experiment: Cellular assay, 11b-HSD1 activity in differentiated 3T3-L1 cells; format: cell-based; conditions: 4 hour pre-incubation, pIC50 scored 1-3, read-out: [C2] HSD1 cellular 3T3-L1 Score
T2 construct: endogenous in cells; host or cells: 3T3-L1 (ATCC-CL-173), differentiated into adipocytes
Method: The effects on 11b-HSD1 activity was measured in differentiated 3T3-L1 cells and rat hepatocytes.
Mouse fibroblast 3T3-L1 cells (ATCC-CL-173) were seeded at a density of 16500 cells/ml in 12 well plates and grown for 7 days in DMEM medium (supplemented with 10% heat inactivated foetal calf serum, 2 mM glutamine and 25 mg gentamycin) at 37 C in a humidified 5% CO2 atmosphere. Medium was refreshed twice a week. Fibroblasts were differentiated into adipocytes at 37 C in a 5% CO2 humidified atmosphere in growth medium containing 2 μg/ml insulin, 55 μg/ml IBMX and 39.2 μg/ml dexamethasone.
Following a 4 hour pre-incubation with test compound, 0.5 μCi ^3H-cortisone or dehydrocorticosterone, was added to the cultures. One hour later, the medium was extracted on Extrelut^3-columns with 15 ml diethyl ether and the extract was analysed by HPLC as described above.
(§2) As for the enzymatic assays, the compounds to be tested were taken from a stock solution and tested at a final concentration ranging from […] to 3.10^−9M. From the thus obtained dose response curves, the pIC50 value was calculated and scored as follows; Score 1=pIC50 value<5, Score 2=pIC50 value in the range of 5 to 6, Score 3=pIC50 value>6. (in this table NT stands for Not Tested).

11b-HSD1 [3] = target: 11b-HSD1 (Homo sapiens, UniProt P28845); experiment: Enzymatic assay, 11b-HSD1 reductase activity (conversion of cortisone into cortisol); format: biochemical; conditions: pIC50 scored 1-3, read-out: [C1] HSD1-prot Reduct Score
Method: The effects of compounds on 11b-HSD1 dependent conversion of cortisone into cortisol (reductase activity) was studied in a reaction mixture containing 30 mM Tris-HCl buffer pH 7.2, 180 μM NADPH, 1 mM EDTA, 2 μM cortisone, 1 μl drug and/or solvent and 11 μg recombinant protein in a final volume of 100 μl.
as §1

11b-HSD2 [4] = target: T1, 11b-HSD2; experiment: Cellular assay, 11b-HSD2 activity in HepG2 cells; format: cell-based; parameters: endogenous in cells; host or cells: HepG2 (ATCC HB-8065); conditions: 4 hour pre-incubation, pIC50 scored 1-3, read-out: [C2] HSD2 cellular HepG2 Score
Method: The effects on 11b-HSD2 activity was studied in HepG2 and LCC-PK1-cells HepG2-cells (ATCC HB-8065) were seeded in 12 well plates at a density of 100,000 cells/ml and grown at 37 C in a humidified 5% CO2 atmosphere in MEM-Rega-3 medium supplemented with 10% heat inactivated foetal calf serum, 2 mM L-glutamine and sodium bicarbonate). Medium was refreshed twice a week. Pig kidney cells (LCC-PK1, ATCC CRL-1392) were seeded at a density of 150,000 cells/ml in 12 well plates and grown at 37 C in a humidified 5% CO2 atmosphere in Medium 199 supplemented with Earls modified salt solution, 100 U/ml penicillin, 100 μg/ml streptomycin and 10% foetal calf serum. Medium was refreshed twice a week. Twenty four hours prior to the onset of the experiment, medium was changed by medium containing 10% charcoal stripped foetal calf serum.
Following a 4 hour pre-incubation with test compound, 0.5 μCi ^3H-cortisol or corticosterone, was added to the cultures. One hour later, the medium was extracted on Extrelut^3-columns with 15 ml diethyl ether and the extract was analysed by HPLC as described above.
as §2

11b-HSD1 (Homo sapiens, UniProt P28845), sequence (P28845 whole entry): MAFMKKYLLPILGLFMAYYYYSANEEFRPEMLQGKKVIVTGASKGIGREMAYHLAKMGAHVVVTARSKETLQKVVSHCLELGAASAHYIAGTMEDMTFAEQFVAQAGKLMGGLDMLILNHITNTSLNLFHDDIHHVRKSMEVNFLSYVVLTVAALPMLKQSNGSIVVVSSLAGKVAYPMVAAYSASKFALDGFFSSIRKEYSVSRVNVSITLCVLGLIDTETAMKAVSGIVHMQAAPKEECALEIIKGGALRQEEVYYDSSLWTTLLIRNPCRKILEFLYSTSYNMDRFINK
T2 sequence (P50172 whole entry): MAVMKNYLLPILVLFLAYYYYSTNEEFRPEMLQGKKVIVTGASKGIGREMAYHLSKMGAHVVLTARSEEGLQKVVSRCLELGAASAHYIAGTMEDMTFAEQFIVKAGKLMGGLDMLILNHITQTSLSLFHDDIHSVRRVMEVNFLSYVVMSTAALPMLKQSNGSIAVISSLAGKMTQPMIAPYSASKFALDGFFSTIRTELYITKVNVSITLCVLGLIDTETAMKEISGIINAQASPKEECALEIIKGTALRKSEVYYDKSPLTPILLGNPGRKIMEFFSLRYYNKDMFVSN

| IC50 (11b-HSD2 [1]) [µM] | IC50 (11b-HSD1 [2]) [µM] | IC50 (11b-HSD1 [3]) [µM] | IC50 (11b-HSD2 [4]) [µM] | Compound |
| --- | --- | --- | --- | --- |
| > 10 | < 1 | > 10 | > 10 | CN(C)c1ccc(C(C)(C)C(=O)NC2C3CC4CC(C3)CC2C4)cc1 (centres unmarked) [Compound 52] |
| > 10 | < 1 | > 10 | > 10 | CCCOc1cccc(C(C)(C)C(=O)NC2C3CC4CC(C3)CC2C4)c1 (centres unmarked) [Compound 53] |
| > 10 | < 1 | < 1 | > 10 | COc1cccc(C(C)(C)C(=O)NC2CCC3CCCC2C3)c1 (centres unmarked) [Compound 74] |
| 1 to 10 | < 1 | < 1 | > 10 | CN(C)c1cccc(C(C)(C)C(=O)NC2C3CC4CC(C3)CC2C4)c1 (centres unmarked) [Compound 78] |
| > 10 | < 1 | > 10 | > 10 | CC(C)(C(=O)NC1C2CC3CC(C2)CC1C3)c1cccc(F)c1 (centres unmarked) [Compound 84] |
| > 10 | < 1 | > 10 | > 10 | CC(C)(C(=O)NC1C2CC3CC(C2)CC1C3)c1ccc(F)cc1F (centres unmarked) [Compound 87] |
| > 10 | < 1 | > 10 | > 10 | O=C(NC1C2CC3CC(C2)CC1C3)C1(c2ccncc2)CCCC1 (centres unmarked) [Compound 127] |
| > 10 | < 1 | 1 to 10 | > 10 | CC(=Cc1ccccc1)C(=O)NC1C2CC3CC(C2)CC1C3 (centres unmarked) [Compound 151] |
| > 10 | < 1 | 1 to 10 | > 10 | CC(=CC(=O)NC1C2CC3CC(C2)CC1C3)c1ccccc1 (centres unmarked) [Compound 153] |
| > 10 | < 1 | > 10 | > 10 | CC(C)(C(=O)N[C@H]1[C@@H]2CC3C[C@H]1C[C@](O)(C3)C2)c1cccc(OCCN2CCOCC2)c1 [Compound 158] |

The next lines start with the compound.

| Compound | IC50 (11b-HSD2 [1]) [µM] | IC50 (11b-HSD1 [2]) [µM] | IC50 (11b-HSD1 [3]) [µM] | IC50 (11b-HSD2 [4]) [µM] |
| --- | --- | --- | --- | --- |
| NC(C(=O)NC1C2CC3CC(C2)CC1C3)c1ccccc1 (centres unmarked) [Compound 50] | > 10 | 1 to 10 | > 10 | > 10 |
| CC(C)(C(=O)NC1C2CC3CC(C2)CC1C3)c1ccc(OCC(=O)O)cc1 (centres unmarked) [Compound 72] | > 10 | < 1 | 1 to 10 | > 10 |
| CC(C)(C(=O)NC1C2CC3CC(C2)CC1C3)c1ccc(OCCN2CCOCC2)cc1 (centres unmarked) [Compound 73] | > 10 | < 1 | > 10 | > 10 |
| CNc1cccc(C(C)(C)C(=O)NC2C3CC4CC(C3)CC2C4)c1 (centres unmarked) [Compound 77] | 1 to 10 | < 1 | > 10 | > 10 |
| CC(C)(C(=O)NC1C2CC3CC(C2)CC1C3)c1cccc(C(F)(F)F)c1 (centres unmarked) [Compound 85] | > 10 | < 1 | > 10 | > 10 |
| COc1ccc(C(C)(C)C(=O)NC2C3CC4CC(C3)CC2C4)cc1OC (centres unmarked) [Compound 86] | > 10 | < 1 | > 10 | > 10 |
| CC(C)(C(=O)NC1C2CC3CC(C2)CC1C3)c1cc(F)ccc1F (centres unmarked) [Compound 88] | > 10 | < 1 | > 10 | > 10 |
| Cc1cccc(C(C)(C)C(=O)NC2C3CC4CC(C3)CC2C4)c1 (centres unmarked) [Compound 89] | > 10 | < 1 | < 1 | > 10 |
| CC(C)(C(=O)NC1C2CC3CC(C2)CC1(O)C3)c1ccccc1 (centres unmarked) [Compound 91] | > 10 | < 1 | > 10 | > 10 |
| CN(C)CCCOc1cccc(C(C)(C)C(=O)NC2C3CC4CC(C3)CC2C4)c1 (centres unmarked) [Compound 92] | > 10 | < 1 | < 1 | > 10 |
| O=C(NC1C2CC3CC(C2)CC1C3)C1(c2cccnc2)CCCC1 (centres unmarked) [Compound 126] | > 10 | < 1 | < 1 | > 10 |
| CC(C)(C(=O)NC1C2CC3CC(C2)CC1C3)c1cccnc1 (centres unmarked) [Compound 128] | > 10 | < 1 | < 1 | > 10 |
| CC(C)(C(=O)NC1C2CC3CC(C2)CC1C3)c1ccsc1 (centres unmarked) [Compound 133] | > 10 | < 1 | > 10 | > 10 |
| CC(C)(C(=O)NC1C2CC3CC(C2)CC1C3)c1cccc2ccccc12 (centres unmarked) [Compound 137] | > 10 | < 1 | < 1 | > 10 |
| CC(C)(C(=O)NC1C2CC3CC(C2)CC1C3)c1ccc2ccccc2c1 (centres unmarked) [Compound 138] | > 10 | < 1 | > 10 | > 10 |
| CC1=C(C(=O)NC2C3CC4CC(C3)CC2C4)Cc2ccccc21 (centres unmarked) [Compound 141] | > 10 | < 1 | < 1 | > 10 |
